Data from PubChem BioAssay (NCI).
Several values for one entry are separate records, joined by “and”; a condition that tells them apart may be missing. Equal values may be shown once.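 Results reflect a 48-hour exposure of cells in 96-well plates to compound at five concentrations. GI50 = concentration required for 50% inhibition of growth. Definition used: TGI = concentration required for complete inhibition of growth.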

Legend:
Experiment in all cases: NCI anticancer screen, dose series, 48 h
HCC-2998 colon = system: HCC-2998 colon
HOP-18 NSCLC = system: HOP-18 NSCLC
SK-MEL-2 melanoma = system: SK-MEL-2 melanoma
HOP-92 NSCLC = system: HOP-92 NSCLC
SW-620 colon = system: SW-620 colon
NCI-H23 lung = system: NCI-H23 lung
MOLT-4 leukemia = system: MOLT-4 leukemia
A498 renal = system: A498 renal
TK-10 renal = system: TK-10 renal
DMS 273 small cell lung = system: DMS 273 small cell lung

Compound	TGI (HCC-2998 colon) [µM]	TGI (HOP-18 NSCLC) [µM]	TGI (SK-MEL-2 melanoma)	TGI (HOP-92 NSCLC)	TGI (SW-620 colon) [µM]	TGI (NCI-H23 lung)	TGI (MOLT-4 leukemia)	TGI (A498 renal) [µM]	TGI (TK-10 renal) [µM]	TGI (DMS 273 small cell lung) [µM]	GI50 (HCC-2998 colon) [µM]	GI50 (SK-MEL-2 melanoma) [µM]	GI50 (HOP-92 NSCLC) [µM]	GI50 (SW-620 colon) [µM]	GI50 (NCI-H23 lung) [µM]	GI50 (MOLT-4 leukemia) [µM]	GI50 (A498 renal) [µM]	GI50 (TK-10 renal) [µM]
O=C1C(=Cc2c(O)cc(O)cc2O)C(=O)c2ccccc21	> 56.4	58.7	> 56.5 µM	> 58 µM	> 56.5	> 53.9 µM	> 81.6 µM	98.7	> 67.5	> 100								
CC1OC(n2cc(F)c(=O)[nH]c2=O)C=CC1=O (stereo not drawn)	43.8	34.1	28.9 µM	33.2 µM	38.6	> 100 µM	69.3 µM	36.9	30.7	36.1								
NCCCNCCCCNC(=O)C(O)NC(=O)CCCCCCN=C(N)N (stereo not drawn)	> 4260	744	750 µM and 3420 µM	745 µM and > 4350 µM	> 5000	750 µM and > 5000 µM	750 µM and > 4510 µM	> 5000	> 5000	> 750	2720	2040	2660	1900	2330	1620	1500	> 4030
Cc1cc(C)c(-n2c(-c3ccc(Br)cc3)cs/c2=N\N=C2C=C(C(C)(C)C)C(=O)C(C(C)(C)C)=C2)c(C)c1	> 100	> 100	> 100 µM	> 89.8 µM	> 100	> 100 µM	> 100 µM	97.7	> 100	> 100								
CC(C)(c1ccccc1)c1ccc(OC#N)cc1	> 100	> 100	> 100 µM	> 100 µM	> 100	> 100 µM	> 100 µM	> 100	> 100	30.7								
